Measured values taken from patent US8772504B2, “Substituted benzoxazole, benzimidazole, oxazolopyridine and imidazopyridine derivatives as gamma secretase modulators” (Janssen Pharmaceuticals, Inc., priority 2009, dated 2014).

What was measured:
Assay type in all cases: cell-based
Aβ42 [1] = assay: Screening for γ-secretase-modulating activity, Method 2: Aβ42 Alphalisa on SKNBE2 cell supernatant; conditions: Method 2, Table 3c, SKNBE2 cells carrying APP 695 wild type, overnight incubation
Procedure: (§1) Screening was carried out using SKNBE2 cells carrying the APP 695—wild type, grown in Dulbecco's Modified Eagle's Medium/Nutrient mixture F-12 (DMEM/NUT-mix F-12) (HAM) provided by Invitrogen (cat no. 10371-029) containing 5% Serum/Fe supplemented with 1% non-essential amino acids, 1-glutamine 2 mM, Hepes 15 mM, penicillin 50 U/ml (units/ml) en streptomycin 50 μg/ml. Cells were grown to near confluency.
(§2) The screening was performed using a modification of the assay as described in Citron et al (1997) Nature Medicine 3: 67. Briefly, cells were plated in a 384-well plate at 10^4 cells/well in Ultraculture (Lonza, BE12-725F) supplemented with 1% glutamine (Invitrogen, 25030-024), 1% non-essential amino acid (NEAA), penicillin 50 U/ml en streptomycin 50 μg/ml in the presence of test compound at different test concentrations. The cell/compound mixture was incubated overnight at 37° C., 5% CO2. The next day the media were assayed by two sandwich immuno-assays, for Aβ42 and Aβtotal.
(§3) Aβtotal and Aβ42 concentrations were quantified in the cell supernatant using the Aphalisa technology (Perkin Elmer). Alphalisa is a sandwich assay using biotinylated antibody attached to streptavidin coated donorbeads and antibody conjugated to acceptor beads. In the presence of antigen, the beads come into close proximity. The excitation of the donor beads provokes the release of singlet oxygen molecules that trigger a cascade of energy transfer in the acceptor beads, resulting in light emission. To quantify the amount of Aβ42 in the cell supernatant, monoclonal antibody specific to the C-terminus of Aβ42 (JRF/cAβ42/26) was coupled to the receptor beads and biotinylated antibody specific to the N-terminus of Aβ (JRF/AβN/25) was used to react with the donor beads. To quantify the amount of Aβtotal in the cell supernatant, monoclonal antibody specific to the N-terminus of Aβ (JRF/AβN/25) was coupled to the receptor beads and biotinylated antibody specific to the mid region of Aβ (biotinylated 4G8) was used to react with the donor beads.
(§4) To obtain the values reported in Table 3c, the data were calculated as percentage of the maximum amount of amyloid Beta 42 measured in the absence of the test compound. The sigmoidal dose response curves were analyzed using non-linear regression analysis with percentage of the control plotted against the log concentration of the compound. A 4-parameter equation was used to determine the IC50.

Aβtotal = assay: Screening for γ-secretase-modulating activity, Method 2: Aβtotal Alphalisa on SKNBE2 cell supernatant; conditions: Method 2, Table 3c, SKNBE2 cells carrying APP 695 wild type, overnight incubation
Procedure: as §1, §2, §3, §4

Aβ42 [2] = assay: Screening for γ-secretase-modulating activity, Method 1: Aβ42 sandwich ELISA on SKNBE2 cell media; conditions: SKNBE2 cells carrying APP 695 wild type
Procedure: as §1, with “Gibco” for “Invitrogen”, “31330-38)” for “10371-029)”, “acids.” for “acids, 1-glutamine 2 mM, Hepes 15 mM, penicillin 50 U/ml (units/ml) en streptomycin 50 μg/ml.”
The screening was performed using the assay as described in Citron et al (1997) Nature Medicine 3: 67. Briefly, cells were plated in a 96-well plate at about 10^5 cells/ml one day prior to addition of compounds. Compounds were added to the cells in Ultraculture (Lonza, BE12-725F) supplemented with 1% glutamine (Invitrogen, 25030-024) for 18 hours. The media were assayed by two sandwich ELISAs, for Aβ42 and Aβtotal. Toxicity of the compounds was assayed by WST-1 cell proliferation reagent (Roche, 1 644 807) according to the manufacturer's protocol.
To quantify the amount of Aβ42 in the cell supernatant, commercially available Enzyme-Linked-Immunosorbent-Assay (ELISA) kits were used (Innotest® β-Amyloid(1-42), Innogenetics N.V., Ghent, Belgium). The Aβ42 ELISA was performed essentially according to the manufacturer's protocol. Briefly, the standards (dilutions of synthetic Aβ1-42) were prepared in polypropylene Eppendorf with final concentrations of 8000 down to 3.9 pg/ml (1/2 dilution step). Samples, standards and blanks (100 μl) were added to the anti-Aβ42-coated plate supplied with the kit (the capture antibody selectively recognizes the C-terminal end of the antigen). The plate was allowed to incubate 3 h at 25° C. in order to allow formation of the antibody-amyloid complex. Following this incubation and subsequent wash steps a selective anti-Aβ-antibody conjugate (biotinylated 3D6) was added and incubated for a minimum of 1 hour in order to allow formation of the antibody-Amyloid-antibody-complex. After incubation and appropriate wash steps, a Streptavidine-Peroxidase-Conjugate was added, followed 30 minutes later by an addition of 3,3′,5,5′-tetramethylbenzidine (TMB)/peroxide mixture, resulting in the conversion of the substrate into a coloured product. This reaction was stopped by the addition of sulfuric acid (0.9 N) and the colour intensity was measured by means of photometry with an ELISA-reader with a 450 nm filter.
To obtain the values reported in Table 3a, the sigmoidal dose response curves were analysed by computerised curve-fitting, with percent of inhibition plotted against compound concentration. A 4-parameter equation (model 205) in XLfit was used to determine the IC50. The top and the bottom of the curve were fixed to 100 and 0, respectively, and the hill slope was fixed to 1. The IC50 represents the concentration of a compound that is required for inhibiting a biological effect by 50% (Here, it is the concentration where Aβ peptide level is reduced by 50%).
as §4, with “3b,” for “3c,”, “IC50. The values reported in Table 3b are averaged IC50 values.” for “IC50.”

[3] = Table 3a, 18 hours, XLfit, top/bottom fixed to 100 and 0, hill slope 1
[4] = Table 3b, non-linear regression of % of control, averaged IC50 values

Row | SMILES | IC50 (Aβ42 [1]) | IC50 (Aβtotal) | IC50 (Aβ42 [2]; [3]) | IC50 (Aβ42 [2]; [4]) | IC50 (Aβ42 [1]; Homo sapiens) | IC50 (Aβtotal; Homo sapiens)
1 | Cc1ncn(-c2ccc(Nc3cc(C(F)(F)F)cc4c3nc(-c3ccc(F)cc3)n4C)cc2)n1 [Compound 69] | 417 nM | > 10000 nM | 106 nM | 117 nM | – | –
2 | COc1cc(Nc2nccc3c2nc(CC2CC2)n3C)ccc1-n1ncnc1C [Compound 101] | 5890 nM | > 10000 nM | > 3000 nM | > 3000 nM | – | –
3 | COc1cccc(-c2nc3c(Nc4ccc(-n5cnc(C)c5)c(OC)n4)cccc3o2)c1 [Compound 152] | 234 nM | 8130 nM | – | – | – | –
4 | CCOc1cccc(-c2nc3c(Nc4ccc(-n5cnc(C)c5)c(F)c4)nc(C)cc3n2C)c1 [Compound 153] | 12 nM | 6460 nM | – | – | – | –
5 | Cc1cc2c(nc(-c3ccc(F)cc3)n2C)c(Nc2ccc(-n3cc(C)nc3I)c(F)c2)n1 [Compound 154] | – | – | – | – | 19 nM | 560 nM
6 | Cc1cn(-c2ccc(Nc3nc(C)cc4c3nc(-c3ccc(F)c(Br)c3)n4C)cc2F)cn1 [Compound 155] | 8 nM | > 10000 nM | – | – | – | –
7 | COc1cc(Nc2cncc3c2nc(-c2ccc(F)cc2)n3C)ccc1-n1cnc(C)n1 [Compound 158] | 166 nM | > 10000 nM | – | – | – | –
8 | COc1nc(Nc2cccc3c2nc(-c2ccc(F)cc2)n3C)ccc1-n1cnc(C)n1 [Compound 161] | 7 nM | > 10000 nM | – | – | – | –
9 | COc1nc(Nc2cccc3c2nc(-c2ccc(C(F)(F)F)cc2)n3C)ccc1-n1cnc(C)c1 [Compound 168] | 8 nM | 7760 nM | – | – | – | –
10 | COc1nc(Nc2cccc3c2nc(-c2ccc(F)c(I)c2)n3C)ccc1-n1cnc(C)c1 [Compound 169] | 5 nM | > 10000 nM | – | – | – | –
11 | COc1nc(Nc2cccc3c2nc(-c2ccccc2OC(F)(F)F)n3C)ccc1-n1cnc(C)c1 [Compound 170] | 36 nM | 9120 nM | – | – | – | –
12 | COc1nc(Nc2cccc3c2nc(-c2cccc(F)c2)n3C)ccc1-n1cnc(C)c1 [Compound 171] | 27 nM | > 10000 nM | – | – | – | –
13 | COc1nc(Nc2cccc3c2nc(-c2ccccc2C(F)(F)F)n3C)ccc1-n1cnc(C)c1 [Compound 172] | 23 nM | > 10000 nM | – | – | – | –
14 | COc1nc(Nc2cccc3c2nc(-c2cccc(N(C)C)c2)n3C)ccc1-n1cnc(C)c1 [Compound 173] | 20 nM | 7940 nM | – | – | – | –
15 | COc1nc(Nc2cccc3c2nc(-c2ccc(F)c(F)c2)n3C)ccc1-n1cnc(C)c1 [Compound 175] | 21 nM | > 10000 nM | – | – | – | –
16 | COc1nc(Nc2cccc3c2nc(-c2cccc(F)c2F)n3C)ccc1-n1cnc(C)c1 [Compound 176] | 23 nM | > 10000 nM | – | – | – | –

More lines, now with the values ahead:

Row | IC50 (Aβ42 [1]) | IC50 (Aβtotal) | IC50 (Aβ42 [2]; [3]) | IC50 (Aβ42 [2]; [4]) | IC50 (Aβ42 [1]; Homo sapiens) | IC50 (Aβtotal; Homo sapiens) | SMILES
17 | 20 nM | 8910 nM | – | – | – | – | COc1cccc(-c2nc3c(Nc4ccc(-n5cnc(C)c5)c(OC)n4)cccc3n2C)c1 [Compound 177]
18 | 23 nM | > 10000 nM | – | – | – | – | COc1ccc(-c2nc3c(Nc4ccc(-n5cnc(C)c5)c(OC)n4)cccc3n2C)cc1 [Compound 178]
19 | 11 nM | 7940 nM | – | – | – | – | CCOc1cccc(-c2nc3c(Nc4ccc(-n5cnc(C)c5)c(OC)n4)cccc3n2C)c1 [Compound 179]
20 | 18 nM | > 10000 nM | – | – | – | – | COc1ccc(F)c(-c2nc3c(Nc4ccc(-n5cnc(C)c5)c(OC)n4)cccc3n2C)c1 [Compound 180]
21 | 39 nM | > 10000 nM | – | – | – | – | COc1ccc(-c2nc3c(Nc4ccc(-n5cnc(C)c5)c(OC)n4)cccc3n2C)c(F)c1 [Compound 182]
22 | 10 nM | 9120 nM | – | – | – | – | COc1cc(-c2nc3c(Nc4ccc(-n5cnc(C)c5)c(OC)n4)cccc3n2C)cc(C(F)(F)F)c1 [Compound 183]
23 | 25 nM | > 10000 nM | – | – | – | – | COc1nc(Nc2cccc3c2nc(-c2ccc(F)cc2C)n3C)ccc1-n1cnc(C)c1 [Compound 185]
24 | 14 nM | 8320 nM | – | – | – | – | COc1cc(F)cc(-c2nc3c(Nc4ccc(-n5cnc(C)c5)c(OC)n4)cccc3n2C)c1 [Compound 188]
25 | 26 nM | > 10000 nM | – | – | – | – | COc1nc(Nc2cccc3c2nc(-c2ccc(F)cc2F)n3C)ccc1-n1cnc(C)c1 [Compound 190]
26 | 18 nM | > 10000 nM | – | – | – | – | COc1nc(Nc2cccc3c2nc(-c2ccc(OC(F)(F)F)cc2)n3C)ccc1-n1cnc(C)c1 [Compound 191]
27 | 13 nM | 8910 nM | – | – | – | – | COc1nc(Nc2cccc3c2nc(-c2ccc(F)c(C(F)(F)F)c2)n3C)ccc1-n1cnc(C)c1 [Compound 192]
28 | 39 nM | 7080 nM | – | – | – | – | COc1nc(Nc2cccc3c2nc(-c2ccccc2F)n3C)ccc1-n1cnc(C)c1 [Compound 193]
29 | 22 nM | > 10000 nM | – | – | – | – | COc1ccc(-c2nc3c(Nc4ccc(-n5cnc(C)c5)c(OC)n4)cccc3n2C)c(C)c1 [Compound 194]
30 | 25 nM | 6460 nM | – | – | – | – | COc1nc(Nc2cccc3c2nc(-c2cc(C(F)(F)F)ccc2C)n3C)ccc1-n1cnc(C)c1 [Compound 195]
31 | 19 nM | 8510 nM | – | – | – | – | COc1nc(Nc2cccc3c2nc(-c2ccccc2)n3C)ccc1-n1cnc(C)c1 [Compound 196]
32 | 35 nM | 8230 nM | – | – | – | – | COc1nc(Nc2cccc3c2nc(-c2ccc(N(C)C)cc2)n3C)ccc1-n1cnc(C)c1 [Compound 197]
33 | 48 nM | > 10000 nM | – | – | – | – | COc1nc(Nc2cccc3c2nc(-c2cccc(C#N)c2)n3C)ccc1-n1cnc(C)c1 [Compound 198]
34 | 13 nM | > 10000 nM | – | – | – | – | COc1cc(Nc2cc(C3CC3)nc3c2nc(-c2ccc(F)cc2)n3C)ccc1-n1cnc(C)n1 [Compound 199]
35 | 40 nM | > 10000 nM | – | – | – | – | COc1cc(Nc2ccnc3c2nc(-c2ccc(F)cc2)n3C)ccc1-n1cnc(C)n1 [Compound 200]
36 | 4 nM | > 10000 nM | – | – | – | – | COc1nc(Nc2ccnc3c2nc(-c2ccc(F)cc2)n3C)ccc1-n1cnc(C)c1 [Compound 201]
37 | 4 nM | > 10000 nM | – | – | – | – | COc1nc(Nc2cc(C)nc3c2nc(-c2ccc(F)cc2)n3C)ccc1-n1cnc(C)c1 [Compound 203]
38 | 14 nM | > 10000 nM | – | – | – | – | COc1cc(Nc2ccc(-n3cnc(C)c3)c(F)c2)c2nc(-c3ccc(F)cc3)n(C)c2n1 [Compound 204]
39 | 63 nM | > 10000 nM | – | – | – | – | Cc1cn(-c2ccc(Nc3ccnc4c3nc(-c3ccc(F)cc3)n4C)cc2F)cn1 [Compound 205]
